Test results taken from patent publication EP4455667B1, “DEVICE FOR DETECTING MOLECULES” (Viscera Technologies Ltd, priority 2023, dated 2024).
≈ marks a conversion by molar mass, not a printed value.

How the values were obtained:
[1] = tested on: anti-3-Nitrotyrosine antibody; test: Lateral flow assay for NHPA in synthetic urine; assay type: binding
Description: The LFA was assembled using a nitrocellulose membrane attached to a plastic backing card (Figure 13). An anti-3-Nitrotyrosine antibody line was printed at 1mg/mL concentration, the line consisted of 20 lines, each with 25 µm width, using 0.1 µL antibody solution/cm/line. A streptavidin line was printed at 1mg/mL concentration and consisted of 10 lines, each with 50 µm width, using 0.1 µL streptavidin solution/cm/line. The membrane was sealed in a foil bag with desiccant silica gel sachets and stored in the fridge until used.
On the test day the wicking pad (5 x 17 mm) was attached to the membrane (2 mm overlap) and the plastic card was cut into strips (5 mm width). Glass fibre conjugate pads (5 x 7 mm) were soaked in AuNP-BSA-biotin-NHPA conjugate (0.5 OD) and dried in a desiccator for 2 hours. The conjugate pad was then attached to the membrane (2mm overlap). […]
Different concentrations of NHPA in synthetic urine (200 µL) were prepared in respective wells of a low-binding 96-well microplate. […] The images of the test strips (Figure 14) were analysed by ImageJ software. […] The grey level of the pixels in each test line was measured and subtracted from the background to calculate each line intensity and its dependence on the NHPA concentration (Figure 15b).

anti-caffeine antibody [2] = test: Modified competitive lateral flow assay for caffeine with two test lines; assay type: binding, mouse
Description: The LFA was assembled using a nitrocellulose membrane attached to a plastic backing card. Anti-caffeine antibody and avidin were immobilised at test lines 1 and 2, respectively, in the detection zone. […] The membrane was dried at RT for 2 hours. The wick was attached to the membrane (2 mm overlap) and the plastic card was cut into strips (5 mm x 60 mm). Glass fibre conjugate pads were soaked in 30% (w/v) sucrose in Milli-Q water and dried in an oven at 37°C. […] The conjugate pad was attached to the membrane and the prepared strips were kept in a desiccator until use.
Different concentrations of caffeine in 2% (w/v) BSA were prepared in respective wells of a low-binding 96-well microplate. The test strips were placed into each well vertically for 3 min, after which they were removed and left to dry. Images of the test strips were taken and analysed by ImageJ software. The grey level of the pixels in each test line was measured and subtracted from the background.
The effects of applying different concentrations of caffeine to the LFA were investigated to determine the working range and sensitivity that can be achieved for caffeine detection. The LFA test strips were prepared according to the design of the assay shown in Figure 3 and run using different concentrations of caffeine ranging from 1 ng/mL to 100 µg/mL. The optimised running buffer included glycerol as an agent to regulate wicking rate, and BSA and Tween-20 as blocking agents to reduce non-specific binding.
As well as visual inspection, the signal intensity of the test lines was analysed using ImageJ software. The signal intensities of test lines 1 and 2 at different caffeine concentrations were plotted in a semi-log graph as shown in Figure 11 (results were measured in triplicates). […] Table 1 - Semi-quantitative analysis of caffeine concentration based on the ratio between the signal intensities of test lines 1 and 2.

anti-caffeine antibody [3] = tested on: anti-caffeine antibody
Description: (§1) A 96-well ELISA plate was coated with anti-caffeine antibody (50 µL, 6 µg/mL, in PBS buffer, pH 7.4) by incubating the plate for 1 hour at RT. The plate was blocked with 2% (w/v) BSA in PBS with 0.05% (v/v) Tween-20, pH 7.4, for 2 hours at RT. BSA-biotin-caffeine conjugate (50 µL) at different concentrations were added to the plate and incubated for 1 hour at RT. HRP-labelled avidin (50 µL, 1:5000 dilution in blocking buffer) was added and the plate was incubated for 1 hour in the dark at RT. After thorough washing of the plate, the colour was developed by adding 3,3',5,5'-tetramethylbenzidine (TMB) liquid substrate system (50 µL). The reaction was stopped by the addition of 1 M H2SO4 (50 µL) and the absorbance at 450 nm was recorded.
(§2) Same general protocol as direct ELISA. Plate was coated with anti-caffeine antibody (50 µL, 6 µg/mL, in PBS buffer, pH 7.4) and blocked with 2% (w/v) BSA in PBS with 0.05% (v/v) Tween-20, pH 7.4. BSA-biotin-caffeine conjugate (25 µL, 40 mg/mL) was mixed with caffeine (25 µL) at different concentrations of the latter, added to the plate and incubated for 1 hour at RT. HRP-labelled avidin (50 µL, 1:5000 dilution) was added and the colour was developed by adding TMB liquid substrate system (50 µL). The reaction was stopped by the addition of 1 M H2SO4 (50 µL) and the absorbance at 450 nm was recorded.
(§3) The same ELISA format was used to test the competition of the BSA-biotin-caffeine conjugate and free caffeine for binding to the anti-caffeine antibody coated on the wells. A fixed amount of BSA-biotin-caffeine conjugate (20 µg/mL) was used and the concentration of free caffeine was varied.

anti-caffeine antibody [4] = test: Competitive ELISA (free caffeine vs caffeine conjugate)
Description: as §1, §2, §3

avidin = avidin (Gallus gallus, UniProt P02701); conditions: association constant from literature (Hermanson); cited from earlier work
[5] = strips kept in a desiccator for seven days at room temperature

Chain of avidin (P02701 25-152, species assumed): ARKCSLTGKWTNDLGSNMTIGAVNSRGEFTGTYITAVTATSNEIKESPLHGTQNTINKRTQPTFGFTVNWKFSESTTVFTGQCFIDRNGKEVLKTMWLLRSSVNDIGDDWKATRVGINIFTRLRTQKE

## O=C(O)Cc1ccc(O)c([N+](=O)[O-])c1 [NHPA, 3-nitro-4-hydroxyphenylacetic acid]
[1]; 250 ng/ml of NHPA in urine samples (synthetic urine)
  decrease of the antibody line's intensity: over 90%
[1]; synthetic urine, also printed as 250 ± 80 ng/ml
  threshold of the assay for NHPA detection in urine: 170 to 330 ng/mL

## Cn1c(=O)c2c(ncn2C)n(C)c1=O [caffeine]
anti-caffeine antibody [2]; anti-caffeine antibody line, signal intensity by ImageJ, triplicates, fresh strips
  IC50 value of test line 1: 5 ng/mL
anti-caffeine antibody [2]; avidin line, signal intensity by ImageJ, triplicates, fresh strips
  IC50 value of test line 2: 8 ng/mL
anti-caffeine antibody [2]; [5]
  IC50 value of test line 1: 3 ng/mL
  IC50 value of test line 2: 11 ng/mL
anti-caffeine antibody [2]; test line 1 only (no colour developed), no calibration
  visual detection limit: 10000 ng/mL
anti-caffeine antibody [2]; test line 2, strips stored seven days at room temperature
  visual detection limit: 10 ng/mL
anti-caffeine antibody [2]; with the second test line (test line 2), fresh strips
  visual detection limit: 10 ng/mL
anti-caffeine antibody [3]
  IC50: 7 ng/mL (≈ 0.036 µM)
anti-caffeine antibody [4]; BSA-biotin-caffeine conjugate (20 µg/mL) as competitor
  detection limit, determined by the concentration of caffeine that results in 10% inhibition: 0.03 ng/mL
anti-caffeine antibody [4]; fixed BSA-biotin-caffeine conjugate (20 µg/mL), free caffeine varied, absorbance at 450 nm, dose response fit
  IC50 value: 1 ng/mL (≈ 0.00515 µM)

## O=C(O)CCCC[C@@H]1SC[C@@H]2NC(=O)N[C@@H]21 [biotin]
avidin
  binding affinity for avidin: 1.3e+15 M⁻¹

## O=C(O)c1ccccc1N=Nc1ccc(O)cc1 [HABA, 4'-hydroxyazobenzene-2-carboxylic acid]
avidin
  binding affinity for avidin: 6e+06 M⁻¹
